Data as given in patent US20100267763A1, “Method of Decreasing Pro-ADAM10 Secretase and/or Beta Secretase Levels” (priority 2009, published 2010).
Entries after “also recorded” stand apart in the source; their conditions may differ. Read-outs that look alike come from different tables or passages of the source.

Tests used:
3xTg-AD mice = experiment: Morris water maze in 3xTg-AD mice; format: in vivo, mouse; details: 2 months
Experimental: 3xTg-AD mice of approximately one year of age were treated for 2 months with ST101. An average dose of 5 mg/kg/day was administered in drinking water (calculated dose, based on mean water consumption). Behavioral effects were tested by assessing performance on the Morris Water Maze. Biochemical effects were examined by measuring brain content of Aβ and APP by ELISA and Western Blot.
Behavioral Effects: Performance of 3xTg-AD Mice in the Morris Water Maze (MWM), adapted from Roozendaal et al., Proc. Natl. Acad. Sci. U.S.A. 100: 1328-1333 (2003).
The MWM tests both spatial memory (i.e. hippocampus dependent) and cued learning (i.e. non-hippocampal) in rodents. The maze is a circular tank filled with opaque water. Mice are placed in the water and must swim to find and escape onto a platform submerged 1.5 cm beneath the surface of the water. The time (in seconds) required to find the platform is recorded. Animals rely on visual cues in the room containing the tank in order to find the platform on successive challenges. Training was conducted daily for seven consecutive days.
Retention of training was assessed twice, 24 and 72 hours after the final training trial. Animals were subjected to a 60-second free swim in the tank with the platform removed. Parameters measured included (1) latency: time required to reach the former platform location and (2) crosses: the number of times the animal swam across the former platform location.

Neuro2a cells = experiment: Aβ production by Neuro2a cultured cells, ELISA of culture medium; format: cell-based, murine; details: 24 hours of treatment, vs control
Experimental: Neuro2a is a murine neuroblastoma cell line that is known to produce amyloid peptides Aβ1-40 and Aβ1-42 in amounts measurable by ELISA assays. These forms of Aβ have been correlated with the pathology in AD brain and Aβ1-42 in particular is postulated to have the ability to block α7 nicotinic receptors and to produce direct neurotoxic effects. Neuro2a cells were treated for 24 hours with ST101 added to the tissue culture medium. Tissue culture medium was collected and analyzed by ELISA for the presence of Aβ.
FIGS. 1A and 1B are bar graphs that depict the effect of the compound ST101 on Aβ production by Neuro2a cells. FIG. 1A is a bar graph that depicts the Aβ concentration in the cell culture medium as a function of ST101 concentration compared to control. FIG. 1B a bar graph that depicts the ratio of Aβ1-42 to Aβ1-40 as a function of ST101 concentration compared to control.

Presenilin 1 = experiment: Western blot of Presenilin 1 in brain extracts of 3xTg-AD mice; format: in vivo, mouse; details: 12-month-old 3xTg-AD mice, 5 mg/kg/day, 2 months
Experimental: (§1) Western blots were probed with antibodies against BACE1 and ADAM10. FIG. 11A is a series of Western blots depicting levels of proADAM10, ADAM10, proBACE, BACE, Presenilin1 and APP-CFTs in brain extracts from ST101 treated 3xTG-AD mice (S) versus control mice (C). C: control brain extract. S: ST101-treated brain extract. Animals were approximately 12 months old at sacrifice after 2 months of treatment with ST101 at 5 mg/kg/day.
(§2) FIG. 11B depicts quantification of the Western blot bands from FIG. 11A by densitometry.

tau [1] = experiment: Western blot of tau and phosphorylated tau in brain extracts of 3xTg-AD mice; format: in vivo, mouse; details: overexposed blot, 12-month-old 3xTg-AD mice, 5 mg/kg/day, 2 months
Excerpt: The status of tau phosphorylation, accumulation and degradation can be assessed in Western blots. Two anti-tau antibodies, directed against non-phosphorylated and phosphorylated tau, were used to probe brain extracts from the initial experiment. FIG. 12 is a series of Western blots depicting levels of full-length tau, tau accumulates, tau degradation products and phosphorylated tau levels in brain extracts from ST101 treated 3xTG-AD mice (S) versus control mice (C). Beta actin levels (Ac) were used as a loading control. P-tau, two panels per antibody: top—normal exposure; bottom—overexposure to visualize minor protein bands. Ac: beta actin antibody as protein loading control. Animals were approximately 12 months old at sacrifice after 2 months of treatment with ST101 at 5 mg/kg/day.

SAMP8 mouse = details: cited from earlier work
ADAM17 (TACE) = experiment: Western blot of TACE in brain extracts of 3xTg-AD mice; format: in vivo, mouse; details: 14.5-month-old 3xTg-AD mice, 2 months of treatment, 5 mg/kg/day in drinking water
Experimental: In addition to ADAM10, ADAM17 (TACE, which is Tumor Necrosis Factor converting enzyme) is known to act as an alpha-secretase of APP. Thus, it was tested in a Western blot whether ST101 reduces levels of ADAM17 (TACE).
The Western blot was obtained using a TACE specific antibody in brain extracts from ST101 treated 3xTG-AD mice (S) versus control mice (C). Animals were approximately 14.5 months old at sacrifice after 2 months of treatment with ST101 at 5 mg/kg/day in drinking water.

[2] = cited from earlier work
Aβ1-40 = experiment: Aβ in brain tissue from cynomolgus monkeys; format: in vivo; details: juvenile cynomolgus monkeys, 10 mg/kg/day by naso-gastric tube, 6 months
Experimental: (§3) Brain samples from cynomolgus monkeys were obtained at the conclusion of a six-month chronic toxicity study. The cynomolgus monkeys used in this study were juveniles of less than 4 years of age. ST101 was administered daily for 6 months by naso-gastric tube at 10 mg/kg/day (n=8 per group). Data was generated from 8 treated and 8 control animals. Levels of Aβ1-40 are shown in FIG. 9, which is a bar graph that depicts the effect of ST 101 on Aβ in brain tissue from cynomolgus monkeys. FIG. 9 depicts the amount of levels of Aβ1-40 in monkeys treated with ST 101, relative to control monkeys.

Monkey toxicity studies = format: in vivo; details: up to 6 months, doses up to approximately 100-fold higher than in 3xTg-AD mice
Experimental: as §3
(§4) On the surface, reduction of alpha-secretase cleavage could be considered an undesirable effect as alpha-secretase cleaves multiple other substrates. Thus, one could hypothesize that reduction of alpha-secretase might cause toxicity. However, ST101 has been proven safe in rodent and monkey toxicity studies of up to 6 months at doses up to approximately 100-fold higher than the ones used in the 3xTg-AD mice. […] This may be due to an incomplete effect of ST101 on alpha-secretases or due to activity of other alpha-secretases compensating for a major effect of ST101 on ADAM10.

APP = experiment: Western blot of APP and APP C-terminal fragments in brain extracts of 3xTg-AD mice; format: in vivo, mouse; details: 5 mg/kg/day
Experimental: To attempt to determine at what part in the Aβ processing/release pathway ST101 may be active, a series of Western blot analyses of brain extracts from the same mice were conducted. These Westerns blots examined intact APP as well as products of its post-translational processing and subsequent degradation.
FIG. 4 is a Western blot that depicts APP C-terminal fragments detected by antibody CT20 in the brains of ST101-treated (S) 3xTg-AD mice, relative to untreated (C) 3xTg mice-AD.
FIG. 5 is a Western blot that depicts APP and degradation fragments detected by antibody CT20 in the brains of ST101-treated (S) 3xTg-AD mice, relative to untreated (C) 3xTg-AD mice. “CT20” stands for full length APP species, and “Actin” stands for anti-beta-actin antibody as a protein loading control.
FIGS. 10A and 10B are Western blots that depict APP carboxy-terminal fragments detected by antibody CT20 in the brains of ST101-treated (T in FIG. 10A, S in FIG. 10B) 3xTg-AD mice, relative to untreated (C) 3xTg-AD mice. FIG. 10B is from a separate experiment that used the same brain extract used in the experiment for FIG. 10A. Animals were approximately 14.5 months old at sacrifice after 2.5 months of treatment with ST101 at 5 mg/kg/day in drinking water. * denotes a control animal with low levels of CTFs.
FIGS. 10C and 10D are Western blots that depict APP carboxy-terminal fragments detected by an APP C-terminal antibody (Eptitomics #: 15654-1) in the brains of ST101-treated (S) 3xTg-AD mice, relative to untreated (C) 3xTg-AD mice. FIG. 10D is a lighter exposure of the Western blot in FIG. 10C. Animals were approximately 14.5 months old at sacrifice after 2.5 months of treatment with ST101 at 5 mg/kg/day in drinking water.

tau [3] = experiment: Tau immunohistochemistry with H7 anti-tau antibody in 3xTg-AD mice; format: in vivo, mouse
Excerpt: The 3xTg-AD mouse model incorporates both pathological hallmarks of Alzheimer's disease: Aβ amyloid plaques and neurofibrillary tangles. Neurofibrillary tangles consist of accumulates of abnormally phosphorylated tau protein. In the 3xTg-AD mice pathological somato-dendritic accumulation of tau can be seen in immunohistochemistry as part of the disease model phenotype.
ST101 effects on tau distribution and accumulation were explored in immunohistochemistry with H7 anti-tau antibody.

[4] = in vivo
Excerpt: as §4

ADAM10 = experiment: Western blot of ADAM10 in brain extracts of 3xTg-AD mice; format: in vivo, mouse; details: 12-month-old 3xTg-AD mice, 5 mg/kg/day, 2 months
Experimental: (§5) APP C-terminal fragments C99 and C83 are created by beta-secretase and alpha-secretase cleavage respectively. The reduction of both C99 and C83 induced by ST101 could therefore be due to reduction or inhibition of secretases. This hypothesis was tested using Western blots of brain extracts from 3xTg-AD mice from the initial experiment in 12-month-old animals treated with ST101 for 2 months. The only beta-secretase is BACE1 and the constitutive alpha-secretase is ADAM10.
as §1, §2

BACE1 = experiment: Western blot of BACE in brain extracts of 3xTg-AD mice; format: in vivo, mouse; details: 12-month-old 3xTg-AD mice, 5 mg/kg/day, 2 months
Experimental: as §5, §1, §2

[5] = cited from earlier work; remark: listed apart in the source
sAPP-beta = experiment: Western blot of sAPP-beta in brain extracts of 3xTg-AD mice; format: in vivo, mouse; details: 14.5-month-old 3xTg-AD mice, 2 months of treatment, 5 mg/kg/day in drinking water
Experimental: FIG. 10B describes a reduction of fragment C99. C99 is created by BACE cleavage which leads to release of soluble APP, specifically sAPP-beta. […] The Western blot was obtained using an sAPP-beta specific antibody in brain extracts from ST101 treated 3xTG-AD mice (S) versus control mice (C). Animals were approximately 14.5 months old at sacrifice after 2 months of treatment with ST101 at 5 mg/kg/day in drinking water.

[6] = 24 and 72 hours after final training, 5 mg/kg/day
[7] = 14.5-month-old 3xTg-AD mice, 2.5 months
[8] = antibody CT20, 12-month-old 3xTg-AD mice, 2 months

O=C1N=C2C=CC=CN2C12Cc1ccccc1C2 [ST101, spiro(imidazo(1,2-a)pyridin-2(3H)-one-3,2′-indan)]
latency on successive days of the training (3xTg-AD mice; 3xTg-AD mice approx. one year old, 5 mg/kg/day in drinking water, vs control): greater reductions in latency | learning and memory performance (3xTg-AD mice; 3xTg-AD mouse strain, 5 mg/kg/day): improves learning and memory performance | crosses during retention testing (3xTg-AD mice; [6]): increases in crosses | latency during retention testing (3xTg-AD mice; [6]): reductions in latency | Aβ1-40 in cell culture medium (Neuro2a cells): without major effects | Aβ1-42 in cell culture medium (Neuro2a cells): significantly reduced | Presenilin 1 level (Presenilin 1): did not show significant changes | accumulated tau and degradation products (tau [1]; H7 antibody): disappearance of accumulated tau and degradation products | phosphorylated tau degradation product (tau [1]; R-p-tau antibody): appearance of a new phosphorylated tau degradation product | accumulation of Aβ-like deposits in brain tissue (SAMP8 mouse): decreased accumulation | learning and memory functions (SAMP8 mouse): improvement | TACE level (ADAM17 (TACE)): reduction of TACE levels in the majority of ST101 treated animals | extracellular ACh concentrations ([2]; cerebral cortex): increases | extracellular concentrations of both ACh and dopamine ([2]; hippocampus): increases | nicotine-stimulated release of acetylcholine (ACh) ([2]; in vivo): potentiates | Aβ1-40 in brain (Aβ1-40): reduction of Aβ1-40 in animals treated with ST101 that did not reach statistical significance | safety in toxicity studies (Monkey toxicity studies): proven safe | 17 kDa fragment (APP; [7]): lack of detection | C99 fragment (APP; [7]): much more pronounced; also recorded: reduction | C83 fragment (APP; 14.5-month-old 3xTg-AD mice, 2.5 months, compared with 12-month-old mice): not reduced to the same degree | C83 C-terminal APP fragment (APP; [8]): substantial decrease | C99 C-terminal APP fragment (APP; [8]): substantial decrease | major APP degradation intermediate (~50 kDa) (APP; [8]): disappearance or significant reduction | molecular weight of full-length APP species (APP; [8]): slightly lowered molecular weight of some full-length species | novel C-terminal APP fragment of about 17 kDa (APP; [8]): appearance | APP CTFs (APP; antibody CT20, 14.5-month-old 3xTg-AD mice, 2.5 months): significant effect of reduction | neuronal loss, Hematoxylin/Eosin stained control sections (tau [3]): no neuronal loss | pathological somato-dendritic tau staining (tau [3]; hippocampus, H7 anti-tau antibody): clear reduction | safety in toxicity studies [4]: proven safe | ADAM-10 protein level (ADAM10): not significantly affected | pro-ADAM10 protein level (ADAM10): profound reduction | BACE protein level (BACE1): profound reduction | Pro-BACE protein level (BACE1): not significantly affected | memory deficits induced by chemical amnesic agents ([5]; methamphetamine, MK-801, scopolamine): attenuates | age-impaired memory ([5]; rodent models): significantly improves | sAPP-beta level (sAPP-beta): concomitant reduction
